Measurements published in PMC6009872, “Carbonic anhydrases from Trypanosoma cruzi and Leishmania donovani chagasi are inhibited by benzoxaboroles” (Journal of Enzyme Inhibition and Medicinal Chemistry, 2017).

Key:
TcCA = molecular target: T1, TcCA (Trypanosoma cruzi, UniProt Q4CVY4); assay: stopped-flow CO2 hydrase assay; type: biochemical; details: 20 mM Hepes pH 7.5, 20 mM Na2SO4, CO2 1.7-17 mM, 15 min preincubation at room temperature
T1 construct: gene Tc00.1047053509597.20
T1 sequence (Q4CVY4 39-638): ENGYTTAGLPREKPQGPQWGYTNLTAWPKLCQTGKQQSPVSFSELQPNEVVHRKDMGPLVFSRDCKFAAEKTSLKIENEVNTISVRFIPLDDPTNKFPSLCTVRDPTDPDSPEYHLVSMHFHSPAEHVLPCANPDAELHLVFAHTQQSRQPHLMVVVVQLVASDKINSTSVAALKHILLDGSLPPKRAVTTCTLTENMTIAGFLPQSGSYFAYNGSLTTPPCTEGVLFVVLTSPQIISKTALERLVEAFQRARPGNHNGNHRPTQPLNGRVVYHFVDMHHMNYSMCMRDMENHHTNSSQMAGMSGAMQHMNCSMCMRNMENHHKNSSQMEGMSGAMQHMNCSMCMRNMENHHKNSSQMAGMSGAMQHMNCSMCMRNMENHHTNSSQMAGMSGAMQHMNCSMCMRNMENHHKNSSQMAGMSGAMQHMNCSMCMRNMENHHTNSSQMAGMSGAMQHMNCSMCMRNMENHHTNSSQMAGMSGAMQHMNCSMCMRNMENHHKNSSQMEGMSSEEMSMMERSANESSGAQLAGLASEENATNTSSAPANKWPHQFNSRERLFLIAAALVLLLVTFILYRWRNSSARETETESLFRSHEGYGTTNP

LdcCA = molecular target: T2, LdcCA (Leishmania infantum, UniProt A4HSV2); assay: stopped-flow CO2 hydrase assay; type: biochemical; details: 20 mM TRIS pH 8.3, 20 mM Na2SO4, CO2 1.7-17 mM, 15 min preincubation at room temperature
T2 construct: gene LINJ_06_0630; organism given as Leishmania donovani chagasi
T2 sequence (A4HSV2 1-306): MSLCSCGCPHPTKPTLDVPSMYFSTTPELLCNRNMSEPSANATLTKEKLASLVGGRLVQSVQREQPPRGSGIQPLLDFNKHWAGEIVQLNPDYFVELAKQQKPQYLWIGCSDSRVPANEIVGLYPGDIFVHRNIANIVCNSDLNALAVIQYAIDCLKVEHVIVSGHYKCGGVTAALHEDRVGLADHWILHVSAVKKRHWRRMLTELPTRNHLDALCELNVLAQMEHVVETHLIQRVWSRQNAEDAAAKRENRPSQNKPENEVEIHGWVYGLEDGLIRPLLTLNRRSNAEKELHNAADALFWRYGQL

OB1OCc2ccc(NC(=S)NCc3ccccc3)cc21 [compound 19, 19]
Ki (TcCA): 59.6 µM | Ki (LdcCA): 4.37 µM

Cc1cc(Cl)cc(CNC(=O)Nc2ccc3c(c2)B(O)OC3)c1 [compound 5, 5]
Ki (TcCA): 87.6 µM | Ki (LdcCA): 4.3 µM

O=[N+]([O-])c1ccc2c(c1)B(O)OC2 [compound 2, 6-nitro benzoxaborole 2]
Ki (TcCA): > 100 µM | Ki (LdcCA): 4.01 µM

O=C(NCc1ccccc1)Nc1ccc2c(c1)B(O)OC2 [compound 4, 4]
Ki (TcCA): 75.1 µM | Ki (LdcCA): 2.04 µM

Cc1ccc(NC(=S)Nc2ccc3c(c2)B(O)OC3)cc1 [compound 15, 15]
Ki (TcCA): 32.5 µM | Ki (LdcCA): 0.67 µM

COc1ccc(NC(=S)Nc2ccc3c(c2)B(O)OC3)cc1 [compound 17, 17]
Ki (TcCA): 12.6 µM | Ki (LdcCA): 0.59 µM

OB1OCc2ccc(NC(=S)Nc3ccccc3)cc21 [compound 23, phenylthioureido benzoxaborole 23]
Ki (TcCA): 23.4 µM | Ki (LdcCA): 0.65 µM

O=C(Nc1ccc(F)cc1)Nc1ccc2c(c1)B(O)OC2 [compound 9, 9]
Ki (TcCA): 24 µM | Ki (LdcCA): 0.78 µM

OB1OCc2ccc(NC(=S)Nc3ccc(F)cc3)cc21 [compound 20, 20]
Ki (TcCA): 19.7 µM | Ki (LdcCA): 0.66 µM

O=C(NCc1ccco1)Nc1ccc2c(c1)B(O)OC2 [compound 8, 8]
Ki (TcCA): 67.6 µM | Ki (LdcCA): 3.54 µM

OB1OCc2ccc(NC(=S)Nc3ccc4ccccc4c3)cc21 [compound 16, 16]
Ki (TcCA): 58.8 µM | Ki (LdcCA): 3.06 µM

O=C(Nc1ccc(Cl)cc1)Nc1ccc2c(c1)B(O)OC2 [compound 7, 7]
Ki (TcCA): 37.8 µM | Ki (LdcCA): 0.62 µM

COc1ccc(C)cc1NC(=O)Nc1ccc2c(c1)B(O)OC2 [compound 12, 12]
Ki (TcCA): 38.6 µM | Ki (LdcCA): 0.67 µM

O=[N+]([O-])c1ccc(NC(=S)Nc2ccc3c(c2)B(O)OC3)cc1 [compound 18, 18]
Ki (TcCA): 46.8 µM | Ki (LdcCA): 0.91 µM

O=C(Nc1ccc(C(F)(F)F)cc1)Nc1ccc2c(c1)B(O)OC2 [compound 10, 10]
Ki (TcCA): 60.7 µM | Ki (LdcCA): 2.59 µM

Nc1ccc2c(c1)B(O)OC2 [compound 3, 6-amino benzoxaborole 3]
Ki (TcCA): > 100 µM | Ki (LdcCA): 2.37 µM

OB1OCc2ccccc21 [compound 1, benzoxaborole 1]
Ki (TcCA): > 100 µM | Ki (LdcCA): 3.79 µM

OB1OCc2ccc(NC(=S)Nc3ccc(C(F)(F)F)cc3)cc21 [compound 22, 22]
Ki (TcCA): 16.6 µM | Ki (LdcCA): 0.85 µM

CC(=O)c1ccc(NC(=O)Nc2ccc3c(c2)B(O)OC3)cc1 [compound 13, 13]
Ki (TcCA): 33.6 µM | Ki (LdcCA): 0.48 µM

OB1OCc2ccc(NC(=S)NCCc3ccccc3)cc21 [compound 14, 14]
Ki (TcCA): 72.8 µM | Ki (LdcCA): 3.2 µM

O=C(Nc1ccccc1)Nc1ccc2c(c1)B(O)OC2 [compound 6, phenylureido benzoxaborole 6]
Ki (TcCA): 32.3 µM | Ki (LdcCA): 0.74 µM

O=C(Nc1ccc2c(c1)B(O)OC2)Nc1c(Cl)cc(Cl)cc1Cl [compound 11, 11]
Ki (TcCA): 69.5 µM | Ki (LdcCA): 3.85 µM

OB1OCc2cc(F)ccc21 [Tavaborole, reference compound]
Ki (TcCA): 60.5 µM | Ki (LdcCA): 2.54 µM

OB1OCc2ccc(NC(=S)NCc3ccco3)cc21 [compound 21, 21]
Ki (TcCA): 42.1 µM | Ki (LdcCA): 4.36 µM
